Results: patent publication US4141986A, “Antibiotics 890A2 and 890A5” (Merck & Co., Inc., priority 1977, dated 1979)

Key:
[1] = system: Vibrio percolans ATCC 8461; experiment: Bioassay I, agar plate disc-diffusion potency per HAEA308 unit; assay type: cell-based; details: Vibrio percolans ATCC 8461, Bioassay I
Experimental: An agar plate disc-diffusion method is employed using either Vibrio percolans ATCC 8461 or Salmonella gallinarum MB-1287 as tester organism. A purified sample of antibiotic 890A1 is used as standard. Antibiotic 890A1 is prepared according to the procedure set forth in Example 5.
Plates containing Vibrio percolans ATCC 8461 are prepared as follows:
A lyophilized culture of Vibrio percolans ATCC 8461 is suspended in 15 ml. of a sterilized medium containing 8 g./liter of Difco Nutrient Broth and 2 g./liter of yeast extract in distilled water "nutrient broth-yeast extract" (herein after designated NBYE). The culture is incubated overnight on a rotary shaker at 28° C. […]
Filter paper discs of one-half inch diameter are dipped into the solution to be assayed, and are placed on the agar. […] The diameter of the zone of inhibition is measured after appropriate incubation (9-18 hours at 37° C. for Salmonella gallinarum MB-1287 or 12-24 hours at 25° C. for Vibrio percolans ATCC 8461.) If necessary, dilutions of the solutions to be assayed are made in 0.05M potassium phosphate buffer, pH 7.4 "potassium phosphate buffer" (hereinafter referred to as KPB), or in deionized water.
Calculations of potencies proceed as follows: a slope is determined by measuring the zone diameters of a solution of antibiotic 890A2 or 890A5 and of a four-fold dilution (in KPB) of this solution. […]

[2] = Stability during desalting on Sephadex G-10; assay type: physicochemical; details: pooled fractions at pH 4.1; A308/A260 ratio of 0.76
Experimental: Fractions 112 through 130 containing 890A2, are concentrated under reduced pressure to 5.5 ml. and the concentrate is applied to a column (2.15 × 70 cm.) of Sephadex G-10, and eluted with deionized water at a flow rate of 1 ml. per minute. Fractions of 2.85 ml. each are collected. The bioactivity as determined by assay against Salmonella gallinarum MB1287 appears in fractions 60 through 98. Fractions 78 through 90 have the highest A308 /A260 ratios, and these are pooled for lyophilization. The pH of the pooled fractions is 4.1, and is adjusted to 7.8 by addition of 8 μl of 1M ammonia.

Row | SMILES | antibiotic potency (ratio of bioactivity to HAEA308) [1] | stability during Sephadex G-10 desalting [2]
1 | CC(=O)NC=CSC1=C(C(=O)O)N2C(=O)C(C(C)O)C2C1 (centres unmarked) [Antibiotic 890A5] | 12 units per HAEA308 unit | 
2 | CC(=O)NC=CSC1=C(C(=O)O)N2C(=O)C(C(C)O)C2C1 (centres unmarked) [Antibiotic 890A2] |  | substantial degradation
